What follows are compounds tested against T1, PLA2 (Homo sapiens, UniProt P14555) (assay: PLA2 Inhibition Assay (14C-oleate labeled E. coli membrane substrate)). Conditions: 100 μM; PLA2 from human platelets; pH 7, 37° C.
T1 construct: The enzyme is isolated from human platelets; from tissue; host or cells: human platelets
T1 sequence (P14555 21-144): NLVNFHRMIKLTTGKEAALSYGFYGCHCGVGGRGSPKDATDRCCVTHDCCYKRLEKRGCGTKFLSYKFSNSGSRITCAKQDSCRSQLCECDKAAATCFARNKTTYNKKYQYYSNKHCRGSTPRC
Format: biochemical
Protocol: The method used is similar to that reported by Franson, et al. [Jesse, R. L. and Franson R. C., Biochim. Biophys. Acta 575: 467-470 (1979); Franson, R. C., Patriarca, P., and Elsback, P., J. Lipid Res. 15: 380-388 (1974)]. The enzyme is isolated from human platelets. The substrate used consists of ^14 C-oleate labeled Escherichia coli membranes. E. coli cells are grown in the presence of ^14 C-oleic acid and then autoclaved to prepare the membranes.
Various concentrations of test compounds are preincubated with PLA2 (3.6 mg/mL in a buffer consisting of 25 mM HEPES (pH 7)), 150 mM NaCl, 5.0 mM CaCl2, and 10% DMSO (v/v, test compound solvent) at 37° C. for 7 minutes. The E. coli substrate is then added (0.1 mM phospholipid, 0,005 mCi ^14 C) and the reaction is then incubated at 37° C. for 30 minutes. The reaction is then terminated by the addition of 1.9 mL tetrahydrofuran (THF), and the entire solution is applied to a solid-phase extraction column (aminopropyl resin, Analytichem). The column is rinsed with an additional 1 mL of THF. The free fatty acid product of the reaction is then eluted from the column with 1 mL 2% acetic acid in THF and collected in a scintillation vial. The amount of free fatty acid product is determined by liquid scintillation counting. The amount of inhibition produced by the test compound is calculated by comparing the counts obtained in the presence of the compound to those obtained in its absence (solvent only). Background counts were determined by performing incubations in the absence of enzyme.
Percent inhibition is determined by the equation: [formula]
`CC1(C)CCC(C)(C)c2cc3cc(-c4cccc(CC(=O)O)c4-c4cccc(C(=O)O)c4)ccc3cc21` [Structure 28c, 3'-carboxy-2-[(1,2,3,4-tetrahydro-1,1,4,4-tetramethyl)-6-anthracenyl]-[1,1'-biphenyl]-6-acetic acid] was tested, and the inhibition at 100 µM was 93%.
`COc1cc(COc2cccc(CC(=O)O)c2-c2cccc(C(=O)O)c2)ccc1C12CC3CC(CC(C3)C1)C2` [Structure 30d, 3'-carboxy-2-[4-(1-adamantyl)-3-methoxyphenyl]methoxy-[1,1'-biphenyl]-6-acetic acid] was tested, and the inhibition at 100 µM was 97%.
In the case of `CC1(C)CCC(C)(C)c2cc(COc3c(C(=O)O)cccc3-c3ccccc3)ccc21` [Structure 48, 2-[5,6,7,8-tetrahydro-5,5,8,8-tetramethyl-2-naphthalenyl]methoxy-[1,1'-biphenyl]-3-carboxylic acid], the inhibition at 100 µM is reported as 88%.
For `O=C(O)CCc1cccc(OCc2ccc(OC3CCCC3)c(OC3CCCC3)c2)c1-c1cccc(C(=O)O)c1` [Structure 37b, 2-[3,4-bis(cyclopentyloxy)phenyl]methoxy-3'-carboxy-[1,1'-biphenyl]-6-propanoic acid], the inhibition at 100 µM was 51%.
`CCOC(=O)c1cccc(-c2c(OCc3ccc4c(c3)C(C)(C)CCC4(C)C)cccc2C(=O)O)c1` [Structure 14l, 2-(5,6,7,8-tetrahydro-5,5,8,8-tetramethyl-2-naphthalenyl)methoxy-[1,1'-biphenyl]-6,3'-dicarboxylic acid, 3'-ethyl ester] gave an inhibition at 100 µM of 54%.
In the case of `CCCCCOc1ccc(COc2cccc(C(=O)O)c2-c2ccccc2)cc1O` [Structure 14e, 2-[(3-hydroxy-4-pentyloxy)phenyl]methoxy-[1,1 '-biphenyl]-6-carboxylic acid], the inhibition at 100 µM is reported as 34%.
Compound `C/C(=C\c1cccc(C(=O)O)c1-c1cccc(C(=O)O)c1)c1ccc2c(c1)C(C)(C)CCC2(C)C` [Structure 11, (E)-[2-(5,6,7,8-tetrahydro-5,5,8,8-tetramethyl-2-naphthalenyl)-1-propenyl]-[1,1'-biphenyl]-6,3'-dicarboxylic acid] has an inhibition at 100 µM of 80%.
`CC1(C)CCC(C)(C)c2cc(COc3cccc(C(=O)O)c3-c3cccc(C(=O)O)c3)ccc21` [Structure 14m, 2-(5,6,7,8-tetrahydro-5,5,8,8-tetramethyl-2-naphthalenyl)methoxy-[1,1'-biphenyl]-6,3'-dicarboxylic acid] showed an inhibition at 100 µM of 54%.
With `CC1(C)CCC(C)(C)c2cc(COc3cccc(C(=O)O)c3-c3ccc(CCO)cc3)ccc21` [Structure 14p, 2-(5,6,7,8-tetrahydro-5,5,8,8-tetramethyl-2-naphthalenyl)methoxy-4'-(2-hydroxy-1-ethyl)-[1,1'-biphenyl]-6-carboxylic acid] the inhibition at 100 µM was 88%.
In the case of `O=C(O)/C=C/c1cccc(OCc2ccc(OC3CCCC3)c(OC3CCCC3)c2)c1-c1cccc(C(=O)O)c1` [Structure 39b], the inhibition at 100 µM is reported as 86%.
In the case of `O=C(O)c1cccc(-c2c(OCc3ccc(OC4CCCC4)c(OC4CCCC4)c3)cccc2C(=O)O)c1` [Structure 14d, 2-[(3,4-biscyclopentyloxy)phenyl]methoxy-[1,1 'biphenyl]-6,3'-dicarboxylic acid], the inhibition at 100 µM is reported as 73%.
In the case of `CCCCCOc1ccc(COc2cccc(CCC(=O)O)c2-c2cccc(C(=O)O)c2)cc1OCCCCC` [Structure 37c, 2-[3,4-bis (pentyloxy)phenyl]methoxy-3'-carboxy-[1,1'-biphenyl]-6-propanoic acid], the inhibition at 100 µM is reported as 59%.
Compound `CCCCCOc1ccc(COc2cccc(CC(=O)O)c2-c2cccc(C(=O)O)c2)cc1OCCCCC` [Structure 30a, 2-[(3,4-bispentyloxy)phenyl]methoxy-3'-carboxy-[1,1'-biphenyl]-6-acetic acid] has an inhibition at 100 µM of 96%.
`COc1cc(COc2cccc(C(=O)O)c2-c2cccc(C(=O)O)c2)ccc1C12CC3CC(CC(C3)C1)C2` [Structure 14h, 2-[4-(1-adamantyl)-3-methoxyphenyl]methoxy-[1,1,-biphenyl]-6,3'-dicarboxylic acid] showed an inhibition at 100 µM of 62%.
